Patent US4826984A, “Heteroarotinoid compounds as anticancer agents” (The Board of Regents for the Oklahoma Agricultural and …, priority 1987, dated 1989)
Values joined by “and” are separate entries in the source; they are usually repeats but may differ in a detail not shown here. Equal entries are not always repeated. “Also recorded” adds a separate entry of the source. Where two headings read alike, the source gives them in different places. Blank lines part the entries; values can stand above or below the compound they belong to.

Key:
[1] = test system: tracheal organ cultures obtained from vitamin A deficient hamsters; test: tissue or blood; format: cell-based, hamster; conditions: for EC50: Mesocricetus auratus, dose for reversal of keratinization in epithelium of 50% of retinoid-deficient hamster tracheas in organ culture, trans-retinoic acid run with each compound, read-out: ED50 (the source's name); for activity relative to all trans-retinoic acid: log units less than the standard; for activity (in words): reversal of keratinization
Excerpt: An evaluation of the anticancer properties of the heteroarotinoids was made via the standard hamster tracheal organ culture bioassay (see D. L. Newton, W. R. Henderson, and M. B. Sporn in Structure-Activity Relationships of Retinoids, National Cancer Institute, Revised Edition, Feb. 26, 1980; and D. L. Newton, W. R. Henderson, and M. B. Sporn, Cancer Research, 40, 3413 [1980]). The assay involves the ability of a test compound in vitro to reverse keratinization in tracheal organ cultures obtained from vitamin A deficient hamsters. The relationship of vitamin A deficient epithelial tissues and precancerous lesions is well known (see C. E. Orfanos, Retinoids-Advances in Basic Research and Therapy, Springer-Verlag, New York, 1981). For example, the addition of retinoids can reverse the anaplastic epithelial lesions induced in prostate glands by chemical carcinogens (see D. P. Chopra and L. J. Wilkoff, Proc. Am Assoc. Cancer Research, 16, 35 (1975); and I. Lasnitzki, British Journal of Cancer, 9, 434 [1955]). The basic procedure for the bioassay involving the vitamin A deficient hamster tracheal organ culture is presented below with the results obtained for some of the compositions.
The harvested tracheas were cultured in a serum-free medium and were gassed with 50% O2, 45% N2, and 5% CO2. The serum-free culture consists of CMRL Medium 1066 with crystalline bovine insulin (1.0 μg/mL), hydrocortisone hemisuccinate (0.1 μg/mL), glutamine (2 mM), pencillin (100 inits/mL), and streptomycin (100 μg/mL). The cultures were incubated for 3 days at 35°-36° C. After incubation in the retinoid-free medium, some of the tracheas were harvested. Most of the specimens had significant squamous metaplasia. The remaining cultures were divided into 3 groups. The first group was treated with the experimental heteroarotinoid in spectrograde dimethyl sulfoxide (DMSO) at concentrations of 10^-8 M, 10^-9 M, and 10^-10 M (final concentration of DMSO in culture medium was 0.1%). […] A final culture was prepared with only DMSO present.
The culture medium was changed three times per week for 10 days. At the end of that time, all tracheas were harvested and fixed in a 4% (or sometimes 10%) formaldehyde-1% glutaraldehyde solution. The material was then embedded in paraffin and cross-sections of the tracheas were examined under a microscope for the presence of keratin or keratohyaline granules. A synthetic retinoid was judged as having good anticancer activity if neither keratin nor keratohyaline granules were present or if only keratohyaline granules were […]. […] Sloughing of the cells in the culture studies was common with the toxic all trans-retinotic acid but was not observed with the heteroarotinoids in this work.
^a ED50 (M) is the dose for reversal of keratinization in
epithelium of 50% of retinoiddeficient hamster tracheas in organ culture.

[2] = test system: ornithine decarboxylase (ODC); test: suppression of TPA induced ornithine decarboxylase (ODC) in mouse skin; format: in vivo; conditions: for activity in inhibiting ODC induction by TPA (in words): mouse, in vivo
Procedure: In the ODC assay, either 13-cis-retinoic acid or trans-retinoic acid was employed. The following Table summarizes the result of the ODC assays.
In the screening tests of the Table, the selected retinoids in 0.2 ml of acetone were applied 1 hour before the application of 10 nmole of TPA to the shaved backs of mice; the mice where then sacrificed for ODC assay 5 hours after TPA treatment. Epidermus was separated, homogenized, and centrifuged at 30,000×g. Soluble epidermal ODC activity was assayed. The retinoids were evaluated in three independent experiments (3 groups of mice with 3 mice per group) and the results from the experiments were normalized (% inhibition) for comparison. […] Which standard is used appears to be relatively unimportant for determining activity in the assay, but the data presented in the Table identifies the standard for sake of clarity and accuracy of presentation. Thus, the presence of the heteroatom in these arotinoids has not eliminated biological activity. […] Consequently, the nature of the terminus group is also important.

HL-60 cells = test: induction of differentiation of HL-60 cells (NBT reduction); format: cell-based, human; conditions: for cells induced to differentiate: 3 μM; for EC50: Homo sapiens
Procedure: In order to evaluate the efficacy of the heteroarotinoids to induce HL-60 cell differentiation along the granulocytic maturation pathway, HL-60 cells were grown in a serum-free medium consisting of HRPMI 1640 supplemented with […] 4-(2-hydroxyethyl)-1-piperazineethane sulfonic acid, 5 μg of insulin/mL, and 5 μg of transferrin/mL. These mature cells, unlike the uninduced HL-60, produced superoxide anion when simulated with an appropriate agent, such as TPA. The ability of the individual cells to produce superoxide can be measured by incubating cells with the water-soluble yellow dye, nitroblue tetrazolium (NBT). NBT is reduced to a water-insoluble blue-black formazan by superoxide. This formazan precipitate is associated with those cells that produce superoxide. Thus, the percentage of cells in a population that produce superoxide (NBT-positive cells) can be enumerated under a light microscope.
After incubation for 4 days at 37° C. in a humidified atmosphere of 5% CO2 and air, the capacity of the cells to reduce NBT was determined. Viable cells (10^6) were harvested by centrifugation and suspended in 0.5 mL of RPMI 1640 containing 20% fetal bovine serum. This cell suspension was mixed with an equal volume of phosphate buffered saline containing 1 mg of NBT/mL and […]. The reaction mixture was incubated at 37° C. for 25 minutes, and the reaction was terminated by cooling in an ice water bath. Cytospin slides were prepared from a portion of this reaction mixture and stained with Wright-Giemsa. A minimum of 200 cells were counted under light microscopy to determine the percentage of cells with cell-associated formazan.

[3] = test system: tracheal organ cultures obtained from vitamin A deficient hamsters; conditions: value stated for the standard in the method; read-out: ED50 (the source's name); cited from earlier work
[4] = single large doses; cited from earlier work
[5] = 34 nmol retinoid + TPA, second experiment (standard 13-cis-retinoic acid)
[6] = 13-cis-retinoic acid as the standard
[7] = HL-60, 96 h, 4 days at 37° C., read-out: ED50 (half-maximal response)
[8] = 34 nmol retinoid + TPA, third experiment (standard trans-retinoic acid)
[9] = trans-retinoic acid as a standard
[10] = 17 nmol retinoid + TPA, first experiment
[11] = 17 nmol retinoid + TPA, second experiment

EC50 [1]: 0.06 nM
Structure (SMILES): CCOC(=O)c1ccc(/C=C(\C)c2ccc3c(c2)C(C)(C)CCS3)cc1 [1 (X = S, R = C2 H5), Ethyl (E)-4-[2-(3,4-dihydro-4,4-dimethyl-2H-1-benzothiopyran-6-yl)-1-propenyl]benzoate]
% Active ([1]; 10^-9 M): 100%
% Active ([1]; 10^-10 M): 53.8%
% Active ([1]; 10^-11 M): 28.6%
% Active ([1]; 10^-12 M): 33.7%
activity relative to all trans-retinoic acid [1]: approximately one-half log unit less than the all trans-retinoic acid
activity (in words) [1]: very good activity

relative activities in suppressing TPA induction of ODC [2, 6]: 13-cis-retinoic acid 31>34
activity in inhibiting ODC induction by TPA (in words) [2]: less active
EC50 (HL-60 cells; [7]): > 3000 nM
Structure (SMILES): COC(=O)c1ccc(/C=C(\C)c2ccc3c(c2)C(C)(C)CCO3)cc1 [compound 31, Methyl (E)-4-[2-(3,4-Dihydro-4,4-dimethyl-2-H-1-benzopyran-6-yl)-1-propenyl]benzoate]
% of Inhibition as Compared to Control [2, 5]: 43%
ODC Activity [2, 5]: 0.95 ± 0.06 nmol CO2 /60 min/mg protein
cells induced to differentiate (HL-60 cells): approximately 15%

Structure (SMILES): COC(=O)c1ccc(/C=C(/C)c2ccc3c(c2)C(C)(C)CO3)cc1 [compound 25]
cells induced to differentiate (HL-60 cells): 3 to 5%

relative activities in suppressing TPA induction of ODC [2, 6]: 13-cis-retinoic acid 31>34
Structure (SMILES): C/C(=C\c1ccc(C#N)cc1)c1ccc2c(c1)C(C)(C)CCO2 [compound 34]
ODC Activity [2, 5]: 1.77 ± 0.32 nmol CO2 /60 min/mg protein

EC50 [1]: 0.1 nM
Structure (SMILES): CCOC(=O)c1ccc(/C=C(\C)c2ccc3c(c2)C(C)(C)CCO3)cc1 [(X = O, R = C2 H5), Ethyl (E)-4-[2-(3,4-Dihydro-4,4-dimethyl-2H-1-benzopyran-6-yl)-1-propenyl]benzoate]
% Active ([1]; 10^-9 M): 100%
% Active ([1]; 10^-10 M): 50.0%
% Active ([1]; 10^-11 M): 28.2%
activity relative to all trans-retinoic acid [1]: only one log unit less than the standard all trans-retinoic acid
activity (in words) [1]: good activity

EC50 [1]: 0.6 nM
Structure (SMILES): CCOC(=O)c1ccc(/C=C(\C)c2ccc3c(c2)C(C)(C)CC[S+]3[O-])cc1 (centres unmarked) [(X = S)--O, R = C2 H5), Ethyl (E)-4-[2-(3,4-Dihydro-4,4-dimethyl-2H-1-benzothiopyran-1-oxo-6-yl)-1-propenyl]benzoate]
% Active ([1]; 10^-8 M): 71.4%
% Active ([1]; 10^-9 M): 71.4%
% Active ([1]; 10^-10 M): 18.6%
activity (in words) [1]: less active but nevertheless displayed activity within the range of the standard

activity in inhibiting ODC induction by TPA (in words) [2]: less active
relative activities in suppressing TPA induction of ODC [2, 9]: trans-retinoic acid >24>35>36
EC50 (HL-60 cells; [7]): > 3000 nM
Structure (SMILES): C/C(=C\c1ccc(CO)cc1)c1ccc2c(c1)C(C)(C)CCO2 [compound 35, (E)-4-[2-Methyl-2-(4,4-dimethyl-6-chromanyl)]benzyl Alcohol]
% of Inhibition as Compared to Control [2, 8]: 68%
ODC Activity [2, 8]: 1.7 ± 0.1 nmol CO2 /60 min/mg protein

Structure (SMILES): CC1=C(/C=C/C(C)=C/C=C/C(C)=C/C(=O)O)C(C)(C)CCC1 [trans-retinoic acid, all trans-retinoic acid, reference compound]
EC50 [3]: 0.01 nM
% of Inhibition as Compared to Control [2, 8]: 81%
ODC Activity [2, 8]: 1.0 ± 0.1 nmol CO2 /60 min/mg protein
relative activities in suppressing TPA induction of ODC [2, 9]: trans-retinoic acid >24>35>36
Sloughing of the cells in the culture studies [1]: common
% Active ([1]; 10^-11 M): 50.0% and 41.7% and 53.8%
% Active ([1]; 10^-12 M): 16.7% and 33.3% and 23.1%
% Active ([1]; concentration printed 11^-11 M): 50.0%
% Active ([1]; concentration printed 12^-12 M): 23.1%
acute toxicity [4]: acutely toxic in single large doses

EC50 (HL-60 cells; [7]): > 3000 nM
EC50 (HL-60 cells; HL-60, restated in discussion, read-out: ED50 (the source's name)): < 3000 nM
Structure (SMILES): C/C(=C\c1ccc(C(=O)O)cc1)c1ccc2c(c1)C(C)(C)CCO2 [acid derived from 34]
cells induced to differentiate (HL-60 cells): approximately 15%

EC50 (HL-60 cells; [7]): > 3000 nM
Structure (SMILES): C/C(=C\c1ccc(C(=O)O)cc1)c1ccc2c(c1)C(C)(C)CO2 [compound 26, (E)-4-[2-(2,3-Dihydro-3,3-dimethyl-5-benzofuranyl)-1-propenyl]benzoic acid]

Structure (SMILES): CC1=C(/C=C/C(C)=C/C=C/C(C)=C\C(=O)O)C(C)(C)CCC1 [13-cis-retinoic acid, reference compound]
% of Inhibition as Compared to Control [2, 10]: 89%
ODC Activity [2, 10]: 0.1 ± 0.01 nmol CO2 /30 min/mg protein
% of Inhibition as Compared to Control [2, 11]: 92%
ODC Activity [2, 11]: 0.14 ± 0.04 nmol CO2 /60 min/mg protein
relative activities in suppressing TPA induction of ODC [2, 6]: 13-cis-retinoic acid 31>34

EC50 [1]: 0.2 nM
Structure (SMILES): C/C(=C\c1ccc(C(=O)O)cc1)c1ccc2c(c1)C(C)(C)CCO2 [(X = O, R = H), (E)-4-[2-(3,4-Dihydro-4,4-dimethyl-2H-1-benzopyran-6-yl)-1-propenyl]benzoic Acid]
% Active ([1]; 10^-8 M): 100%
% Active ([1]; 10^-9 M): 100%
% Active ([1]; 10^-10 M): 57.1%
% Active ([1]; 10^-11 M): 11.14%
activity relative to all trans-retinoic acid [1]: only one log unit less than the standard all trans-retinoic acid
activity (in words) [1]: good activity

activity in inhibiting ODC induction by TPA (in words) [2]: less active
relative activities in suppressing TPA induction of ODC [2, 9]: trans-retinoic acid >24>35>36
Structure (SMILES): C/C(=C\c1ccc(C=O)cc1)c1ccc2c(c1)C(C)(C)CCO2 [compound 36]
% of Inhibition as Compared to Control [2, 8]: 34%
ODC Activity [2, 8]: 3.5 ± 0.2 nmol CO2 /60 min/mg protein

relative activities in suppressing TPA induction of ODC [2, 9]: trans-retinoic acid >24>35>36
EC50 (HL-60 cells; [7]): > 3000 nM
Structure (SMILES): COC(=O)c1ccc(/C=C(\C)c2ccc3c(c2)C(C)(C)CO3)cc1 [compound 24, Methyl (E)-4-[2-(2,3-Dihydro-3,3-dimethyl-5-benzofuranyl)-1-propenyl]benzoate]
% of Inhibition as Compared to Control [2, 8]: 72%
ODC Activity [2, 8]: 1.5 ± 0.4 nmol CO2 /60 min/mg protein
activity in inhibiting ODC induction by TPA (in words) [2]: strongest activity; also recorded: strong activity as compared to the control
cells induced to differentiate (HL-60 cells): 3 to 5%
